We go through 30 compounds from PMC8294009, “Genetically-encoded discovery of proteolytically stable bicyclic inhibitors for morphogen NODAL” (Chemical Science, 2021).

Where two headings read alike, the source gives them in different places. *1 amine or outer side, *2 acyl side, *3 side chain or, on linkers, in order; H or OH if unused. Where a SMILES comes first, the peptide text is derived from it. Bridges are numbered along the chain shown (N, C = ends). X2 = O=C(C=NOCc1cc(C[*:2])cc(C[*:3])c1)[*:1]; mXylylene = c1cc(C[*:1])cc(C[*:2])c1

Series [1] in a line: Proteolytic stability in Pronase. As to conditions: Streptomyces griseus, Pronase (protease mixture) in PBS, pH 7.4.
Method: Protocol for measurement of proteolytic stability in PronaseTM :
In a 600 L Eppendorf tube, we combined 196 L PBS (pH 7.4), 2 L of corresponding peptide
solution (from 10 mM stock) and 2 L of 0.1 mg/mL PronaseTM. The mixture was vortexed and
incubated at 37 °C. At indicated time points, 10 L of the solution was sampled, quenched with
190 L of 50% aq. CH3CN and maintained at 4 °C until analysis by LCMS.
For series [2] the following is noted: crosslinker bond.

Consider `CC(C)C[C@@H]1NC(=O)[C@H](Cc2ccc(O)cc2)NC(=O)[C@@H]2CSCc3cc(cc(c3)CSC[C@@H](C(N)=O)NC(=O)[C@H](CCC(=O)O)NC1=O)CON=CC(=O)N[C@@H](Cc1c[nH]c3ccccc13)C(=O)N[C@@H](CC(=O)O)C(=O)N[C@@H](Cc1ccc(O)cc1)C(=O)N[C@@H](CCCNC(=N)N)C(=O)N[C@@H](CCC(=O)O)C(=O)N2` [TSL-1-SWDYRECYLEC] (WDYRECYLEC-NH2; linker N-6-10 via X2), for which the fraction remaining at 5 h, 100 µM in series [1] is 82 ± 13%.

The compound H-SWDYRECYLEC-NH2 + TSL-1 yielded a ring closure, isolated yield in series [2] (TSL-1) of 54%.

For H-SPCKAGTGQC-NH2 + DBMB, the ring closure, isolated yield in series [2] (DBMB) was found to be 12%.

As for H-SHDCYLEC-NH2 + DBMB, the ring closure, isolated yield in series [2] (DBMB) was 27%.

Consider H-SHCDYYC-NH2 + DBMB, for which the ring closure, isolated yield in series [2] (DBMB) is 47%.

Regarding H-STCQGECGGG-NH2 + DBMB, in series [2] (DBMB), the ring closure, isolated yield was determined as 19%.

In the case of H-SYCPYSGTNC-NH2 + TSL-6, the ring closure, isolated yield in series [2] (TSL-6) was determined as 32%.

In the case of H-SFCDWYGC-NH2 + DBMB, in series [2] (DBMB), the ring closure, isolated yield is 10%.

On to H-SPCKGRHHNC-NH2 + DBMB, for which the ring closure, isolated yield in series [2] (DBMB) came to 63%.

As to H-SPCAKGMNYC-NH2 + DBMB, in series [2] (DBMB), the ring closure, isolated yield was 25%.

H-SPCKGPSATC-NH2 + DBMB: the ring closure, isolated yield in series [2] (DBMB) stood at 10%.

For H-SWDYRECYLEC-NH2 + DBMB, the ring closure, isolated yield in series [2] (DBMB) was found to be 12%.

Turning to H-SYCKPFC-NH2 + TSL-1, in series [2] (TSL-1), the ring closure, isolated yield came to 41%.

H-SHCVWWDC-NH2 + DBMB came in with a ring closure, isolated yield in series [2] (DBMB) of 16%.

H-SQCKRAHAEC-NH2 + DBMB displayed a ring closure, isolated yield in series [2] (DBMB) of 10%.

In turn, H-SWDYRECYLEC-NH2 + TSL-6 displayed a ring closure, isolated yield in series [2] (TSL-6) of 42%.

In series [2] (TBMB), Ac-CNTWNPWCPWDAPLCam-NH2 + TBMB registered a ring closure, isolated yield of 38%.

Regarding H-STCQGECGGG-NH2 + PFS, in series [2] (PFS), the ring closure, isolated yield came out at 31%.

Take `CC(C)C[C@@H]1NC(=O)[C@H](Cc2ccc(O)cc2)NC(=O)[C@@H](NC(=O)[C@H](CC(=O)O)NC(=O)[C@H](Cc2c[nH]cn2)NC(=O)[C@@H](N)CO)CSCc2cccc(c2)CSC[C@@H](C(N)=O)NC(=O)[C@H](CCC(=O)O)NC1=O` [6g] (H-SHDCYLEC-NH2; linker 4-8 via mXylylene): in series [1], the fraction remaining at 5 h, 100 µM was less than 1%.

For the compound H-SSWPARCLHQDLC-NH2 + DBMB, the ring closure, isolated yield in series [2] (DBMB) is 46%.

With `CC(C)C[C@@H]1NC(=O)[C@H](Cc2ccc(O)cc2)NC(=O)[C@@H]2CSCc3cc(cc(c3)CSC[C@@H](C(N)=O)NC(=O)[C@H](CCC(=O)O)NC1=O)CON=CC(=O)N[C@@H](Cc1c[nH]cn1)C(=O)N[C@@H](CC(=O)O)C(=O)N2` [6c] (HDCYLEC-NH2; linker N-3-7 via X2), the share remaining at 5 h, 100 µM in series [1] is 83 ± 6.9%.

Take H-SICRFFCGGG-NH2 + DBMB: in series [2] (DBMB), the ring closure, isolated yield is 46%.

Consider H-SYCKADC-NH2 + TSL-1, for which the ring closure, isolated yield in series [2] (TSL-1) was 37%.

Take H-SYCKRAHKNC-NH2 + TSL-6: the ring closure, isolated yield in series [2] (TSL-6) was 14%.

With `CC(C)C[C@@H]1NC(=O)[C@H](Cc2ccc(O)cc2)NC(=O)[C@@H](NC(=O)[C@H](CC(=O)O)NC(=O)[C@H](Cc2c[nH]cn2)NC(=O)[C@@H](N)CO)CSSC[C@@H](C(N)=O)NC(=O)[C@H](CCC(=O)O)NC1=O` [6a] (H-SHDCYLEC-NH2; disulfide 4-8), the fraction remaining at 5 h, 100 µM in series [1] was less than 1%.

On to Ac-CSWPARCLHQDLC-NH2 + TBMB, for which, in series [2] (TBMB), the ring closure, isolated yield was 33%.

With H-SYCKADC-NH2 + DBMB, the ring closure, isolated yield in series [2] (DBMB) worked out at 47%.

H-SYCKRAHKNC-NH2 + DBMB: in series [2] (DBMB), the ring closure, isolated yield was determined as 32%.

The compound H-SYCKPFC-NH2 + DBMB yielded a ring closure, isolated yield in series [2] (DBMB) of 62%.

In series [2] (PFS), H-SICRFFCGGG-NH2 + PFS showed a ring closure, isolated yield of 40%.
